Values joined by “and” are separate entries in the source; they are usually repeats but may differ in a detail not shown here. Equal values may be shown once. Read-outs that look alike come from different tables or passages of the source.
Legend:
[1] = Level of impurities in dependency on pH and repeated autoclaving (HPLC), Example 6; format: physicochemical
Protocol: The appropriate pH value was adjusted by using sodium hydroxide solution (1 M sodium hydroxide) or diluted hydrochloric acid (1 M hydrochloric acid). […] HP Zorbax SB-C18, 3.5 μm • Column material: stainless steel • Column length: 150 mm • Column internal diameter: 4.6 mm • Equilibration of the column: Column must be rinsed with mobile phase B (% B=25) for at least 60 minutes at a flow rate of 1 mL/min prior to sample injection. • Storage of the column: Column can be stored in acetonitrile/water=20/80 (v/v) Mobile Phase A […] The mobile phase was filtered through a 1.5 μm filter. Typically, add 500 mL of mobile phase A to 500 mL of acetonitrile. Mix and degas. [table] Procedure • Flow rate: 1 mL/min • Injection volume: 40 μl • Auto sampler temperature: Set autosampler temperature at +12° C. • Column temperature: […]

[2] = Level of impurities in dependency on Otamixaban concentration and autoclaving (HPLC), Example 7; format: physicochemical; conditions: autoclaving
Text: The appropriate pH value was adjusted by using sodium hydroxide solution (1 M sodium hydroxide) or diluted hydrochloric acid (1 M hydrochloric acid).

[3] = Level of impurities in dependency on pH and storage time (HPLC), Example 8; format: physicochemical; conditions: 40° C./75% RH
Protocol: The appropriate pH value was adjusted by using sodium hydroxide solution (1 M sodium hydroxide) or diluted hydrochloric acid (1 M hydrochloric acid). The prepared vials were autoclaved one time and were stored at 40° C. and 75% RH (relative humidity).

models of thrombosis [4] = conditions: rodent; cited from earlier work
models of thrombosis [5] = conditions: canine; cited from earlier work
models of thrombosis [6] = conditions: porcine; cited from earlier work
acute coronary syndrome = conditions: humans; cited from earlier work
[7] = system: prothrombin fragments 1+2; conditions: dose-ranging clinical trial; highest dose regimen; cited from earlier work
factor Xa = molecular target: T1, factor Xa (Homo sapiens, UniProt P00742); conditions: patients with stable coronary artery disease; cited from earlier work
T1 construct: host or cells: blood of patients (in vivo, clinical trial)

[8] = pH 2.5, number of autoclaving 0
[9] = pH 2.5, number of autoclaving 1
[10] = pH 3.2, number of autoclaving 0
[11] = pH 3.2, number of autoclaving 1
[12] = pH 3.2, number of autoclaving 3
[13] = pH 3.5, number of autoclaving 0
[14] = pH 3.5, number of autoclaving 1
[15] = pH 3.7, number of autoclaving 0
[16] = pH 3.7, number of autoclaving 1
[17] = pH 3.7, number of autoclaving 3
[18] = pH 4.0, number of autoclaving 0
[19] = pH 4.0, number of autoclaving 1
[20] = pH 4.2, number of autoclaving 0
[21] = pH 4.5, number of autoclaving 0
[22] = pH 4.5, number of autoclaving 1
[23] = pH 4.7, number of autoclaving 0
[24] = pH 4.7, number of autoclaving 2

T1 sequence (P00742 235-488 limits assumed): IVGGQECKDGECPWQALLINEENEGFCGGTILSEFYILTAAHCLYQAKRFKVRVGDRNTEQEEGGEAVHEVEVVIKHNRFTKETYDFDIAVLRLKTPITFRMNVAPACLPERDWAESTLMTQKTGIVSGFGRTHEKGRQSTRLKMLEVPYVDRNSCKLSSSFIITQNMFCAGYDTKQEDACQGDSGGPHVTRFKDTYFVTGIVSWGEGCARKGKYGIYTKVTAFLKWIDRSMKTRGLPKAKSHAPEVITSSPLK
T1 sequence (P00742 41-179 partner limits assumed): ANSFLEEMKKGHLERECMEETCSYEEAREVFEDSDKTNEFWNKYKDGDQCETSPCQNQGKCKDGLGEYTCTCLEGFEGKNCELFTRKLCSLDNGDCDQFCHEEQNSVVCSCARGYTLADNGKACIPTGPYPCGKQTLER

Increase of Formula II (carbamimidoyl-benzyl butyric acid) [1, 8]: 0.10% | Increase of Formula III (carbamoyl-benzyl butyric acid methyl ester) [1, 8]: 0.39% | Increase of Formula II (carbamimidoyl-benzyl butyric acid) [1, 9]: 0.33% | Increase of Formula III (carbamoyl-benzyl butyric acid methyl ester) [1, 9]: 0.71% | Increase of Formula II (carbamimidoyl-benzyl butyric acid) ([1]; pH 2.5, number of autoclaving 2): 0.56% | Increase of Formula III (carbamoyl-benzyl butyric acid methyl ester) ([1]; pH 3.0, number of autoclaving 0): 0.39% | Increase of Formula III (carbamoyl-benzyl butyric acid methyl ester) ([1]; pH 3.0, number of autoclaving 1): 0.74% | Increase of Formula II (carbamimidoyl-benzyl butyric acid) [1, 10]: 0.08% | Increase of Formula III (carbamoyl-benzyl butyric acid methyl ester) [1, 10]: 0.39% | Increase of Formula II (carbamimidoyl-benzyl butyric acid) [1, 11]: 0.15% | Increase of Formula III (carbamoyl-benzyl butyric acid methyl ester) [1, 11]: 0.76% | Increase of Formula II (carbamimidoyl-benzyl butyric acid) ([1]; pH 3.2, number of autoclaving 2): 0.21% | Increase of Formula II (carbamimidoyl-benzyl butyric acid) [1, 12]: 0.27% | Increase of Formula III (carbamoyl-benzyl butyric acid methyl ester) [1, 12]: 1.50% | Increase of Formula II (carbamimidoyl-benzyl butyric acid) [1, 13]: 0.08% | Increase of Formula III (carbamoyl-benzyl butyric acid methyl ester) [1, 13]: 0.39% | Increase of Formula II (carbamimidoyl-benzyl butyric acid) [1, 14]: 0.12% | Increase of Formula III (carbamoyl-benzyl butyric acid methyl ester) [1, 14]: 0.81% | Increase of Formula II (carbamimidoyl-benzyl butyric acid) ([1]; pH 3.5, number of autoclaving 2): 0.17% | Increase of Formula II (carbamimidoyl-benzyl butyric acid) ([1]; pH 3.5, number of autoclaving 3): 0.21% | Increase of Formula II (carbamimidoyl-benzyl butyric acid) [1, 15]: 0.08% | Increase of Formula III (carbamoyl-benzyl butyric acid methyl ester) [1, 15]: 0.39% | Increase of Formula II (carbamimidoyl-benzyl butyric acid) [1, 16]: 0.11% and 0.12% | Increase of Formula III (carbamoyl-benzyl butyric acid methyl ester) [1, 16]: 0.87% and 0.84% | Increase of Formula II (carbamimidoyl-benzyl butyric acid) ([1]; pH 3.7, number of autoclaving 2): 0.16% | Increase of Formula II (carbamimidoyl-benzyl butyric acid) [1, 17]: 0.20% and 0.19% | Increase of Formula III (carbamoyl-benzyl butyric acid methyl ester) [1, 17]: 1.80% | Increase of Formula II (carbamimidoyl-benzyl butyric acid) [1, 18]: 0.08% | Increase of Formula III (carbamoyl-benzyl butyric acid methyl ester) [1, 18]: 0.39% | Increase of Formula II (carbamimidoyl-benzyl butyric acid) [1, 19]: 0.12% | Increase of Formula III (carbamoyl-benzyl butyric acid methyl ester) [1, 19]: 0.95% | Increase of Formula II (carbamimidoyl-benzyl butyric acid) ([1]; pH 4.0, number of autoclaving 2): 0.16% | Increase of Formula II (carbamimidoyl-benzyl butyric acid) ([1]; pH 4.0, number of autoclaving 3): 0.19% | Increase of Formula II (carbamimidoyl-benzyl butyric acid) [1, 20]: 0.07% | Increase of Formula III (carbamoyl-benzyl butyric acid methyl ester) [1, 20]: 0.39% | Increase of Formula II (carbamimidoyl-benzyl butyric acid) ([1]; pH 4.2, number of autoclaving 1): 0.13% | Increase of Formula II (carbamimidoyl-benzyl butyric acid) ([1]; pH 4.2, number of autoclaving 2): 0.18% | Increase of Formula II (carbamimidoyl-benzyl butyric acid) ([1]; pH 4.2, number of autoclaving 3): 0.22% | Increase of Formula II (carbamimidoyl-benzyl butyric acid) [1, 21]: 0.08% | Increase of Formula III (carbamoyl-benzyl butyric acid methyl ester) [1, 21]: 0.39% | Increase of Formula II (carbamimidoyl-benzyl butyric acid) [1, 22]: 0.15% | Increase of Formula III (carbamoyl-benzyl butyric acid methyl ester) [1, 22]: 1.40% | Increase of Formula II (carbamimidoyl-benzyl butyric acid) ([1]; pH 4.5, number of autoclaving 2): 0.24% | Increase of Formula II (carbamimidoyl-benzyl butyric acid) ([1]; pH 4.5, number of autoclaving 3): 0.30% | Increase of Formula II (carbamimidoyl-benzyl butyric acid) [1, 23]: 0.08% | Increase of Formula III (carbamoyl-benzyl butyric acid methyl ester) [1, 23]: 0.39% | Increase of Formula II (carbamimidoyl-benzyl butyric acid) ([1]; pH 4.7, number of autoclaving 1): 0.20% | Increase of Formula II (carbamimidoyl-benzyl butyric acid) [1, 24]: 0.32% | Increase of Formula III (carbamoyl-benzyl butyric acid methyl ester) [1, 24]: 3.20% | Increase of Formula II (carbamimidoyl-benzyl butyric acid) ([1]; pH 4.7, number of autoclaving 3): 0.43% | Increase of Formula II (carbamimidoyl-benzyl butyric acid) ([3]; pH 2.5, storage time 0 months): 0.33% | Increase of Formula III (carbamoyl-benzyl butyric acid methyl ester) ([3]; pH 2.5, storage time 0 months): 0.71% | Increase of Formula III (carbamoyl-benzyl butyric acid methyl ester) ([3]; pH 2.5, storage time 1 months): 0.77% | Increase of Formula III (carbamoyl-benzyl butyric acid methyl ester) ([3]; pH 2.5, storage time 3 months): 0.86% | Increase of Formula II (carbamimidoyl-benzyl butyric acid) ([3]; pH 2.5, storage time 6 months): 7.10% | Increase of Formula III (carbamoyl-benzyl butyric acid methyl ester) ([3]; pH 2.5, storage time 6 months): 0.98% | Increase of Formula II (carbamimidoyl-benzyl butyric acid) ([3]; pH 3.0, storage time 0 months): 0.18% | Increase of Formula III (carbamoyl-benzyl butyric acid methyl ester) ([3]; pH 3.0, storage time 0 months): 0.74% | Increase of Formula II (carbamimidoyl-benzyl butyric acid) ([3]; pH 3.0, storage time 1 months): 0.58% | Increase of Formula III (carbamoyl-benzyl butyric acid methyl ester) ([3]; pH 3.0, storage time 1 months): 0.82% | Increase of Formula III (carbamoyl-benzyl butyric acid methyl ester) ([3]; pH 3.0, storage time 3 months): 0.96% | Increase of Formula II (carbamimidoyl-benzyl butyric acid) ([3]; pH 3.2, storage time 0 months): 0.15% | Increase of Formula III (carbamoyl-benzyl butyric acid methyl ester) ([3]; pH 3.2, storage time 0 months): 0.76% | Increase of Formula II (carbamimidoyl-benzyl butyric acid) ([3]; pH 3.2, storage time 1 months): 0.41% | Increase of Formula III (carbamoyl-benzyl butyric acid methyl ester) ([3]; pH 3.2, storage time 1 months): 0.85% | Increase of Formula II (carbamimidoyl-benzyl butyric acid) ([3]; pH 3.2, storage time 3 months): 0.93% | Increase of Formula III (carbamoyl-benzyl butyric acid methyl ester) ([3]; pH 3.2, storage time 3 months): 1.00% | Increase of Formula II (carbamimidoyl-benzyl butyric acid) ([3]; pH 3.5, storage time 0 months): 0.12% | Increase of Formula III (carbamoyl-benzyl butyric acid methyl ester) ([3]; pH 3.5, storage time 0 months): 0.81% | Increase of Formula II (carbamimidoyl-benzyl butyric acid) ([3]; pH 3.5, storage time 1 months): 0.27% | Increase of Formula III (carbamoyl-benzyl butyric acid methyl ester) ([3]; pH 3.5, storage time 1 months): 0.91% | Increase of Formula II (carbamimidoyl-benzyl butyric acid) ([3]; pH 3.5, storage time 3 months): 0.55% | Increase of Formula II (carbamimidoyl-benzyl butyric acid) ([3]; pH 3.5, storage time 6 months): 0.99% | Increase of Formula II (carbamimidoyl-benzyl butyric acid) ([3]; pH 3.7, storage time 0 months): 0.11% | Increase of Formula III (carbamoyl-benzyl butyric acid methyl ester) ([3]; pH 3.7, storage time 0 months): 0.87% | Increase of Formula II (carbamimidoyl-benzyl butyric acid) ([3]; pH 3.7, storage time 1 months): 0.22% | Increase of Formula III (carbamoyl-benzyl butyric acid methyl ester) ([3]; pH 3.7, storage time 1 months): 0.96% | Increase of Formula II (carbamimidoyl-benzyl butyric acid) ([3]; pH 3.7, storage time 3 months): 0.42% | Increase of Formula II (carbamimidoyl-benzyl butyric acid) ([3]; pH 3.7, storage time 6 months): 0.72% | Increase of Formula II (carbamimidoyl-benzyl butyric acid) ([3]; pH 4.0, storage time 0 months): 0.12% | Increase of Formula III (carbamoyl-benzyl butyric acid methyl ester) ([3]; pH 4.0, storage time 0 months): 0.95% | Increase of Formula II (carbamimidoyl-benzyl butyric acid) ([3]; pH 4.0, storage time 1 months): 0.18% | Increase of Formula II (carbamimidoyl-benzyl butyric acid) ([3]; pH 4.0, storage time 3 months): 0.32% | Increase of Formula II (carbamimidoyl-benzyl butyric acid) ([3]; pH 4.0, storage time 6 months): 0.52% | Increase of Formula II (carbamimidoyl-benzyl butyric acid) ([3]; pH 4.2, storage time 0 months): 0.13% | Increase of Formula II (carbamimidoyl-benzyl butyric acid) ([3]; pH 4.2, storage time 1 months): 0.18% | Increase of Formula III (carbamoyl-benzyl butyric acid methyl ester) ([3]; pH 4.2, storage time 1 months): 1.20% | Increase of Formula II (carbamimidoyl-benzyl butyric acid) ([3]; pH 4.2, storage time 3 months): 0.27% | Increase of Formula II (carbamimidoyl-benzyl butyric acid) ([3]; pH 4.2, storage time 6 months): 0.43% | Increase of Formula II (carbamimidoyl-benzyl butyric acid) ([3]; pH 4.5, storage time 0 months): 0.15% | Increase of Formula III (carbamoyl-benzyl butyric acid methyl ester) ([3]; pH 4.5, storage time 0 months): 1.40% | Increase of Formula II (carbamimidoyl-benzyl butyric acid) ([3]; pH 4.5, storage time 1 months): 0.20% | Increase of Formula II (carbamimidoyl-benzyl butyric acid) ([3]; pH 4.5, storage time 3 months): 0.30% | Increase of Formula II (carbamimidoyl-benzyl butyric acid) ([3]; pH 4.5, storage time 6 months): 0.44% | Increase of Formula II (carbamimidoyl-benzyl butyric acid) ([3]; pH 4.7, storage time 0 months): 0.20% | Increase of Formula II (carbamimidoyl-benzyl butyric acid) ([3]; pH 4.7, storage time 1 months): 0.25% | Increase of Formula II (carbamimidoyl-benzyl butyric acid) ([3]; pH 4.7, storage time 3 months): 0.36% | Increase of Formula II (carbamimidoyl-benzyl butyric acid) ([3]; pH 4.7, storage time 6 months): 0.52%
SMILES: COC(=O)[C@H](Cc1cccc(C(=N)N)c1)[C@@H](C)NC(=O)c1ccc(-c2cc[n+]([O-])cc2)cc1 (mixture of isomers) [Otamixaban, Methyl (2R,3R)-2-{3-[amino(imino)methyl]benzyl}-3-{[4-(1-oxidopyridin-4-yl)benzoyl]amino}butanoate]
dependence of Formula III level on Otamixaban concentration or vial volume [2]: independent from the concentration of Otamixaban or vial volume | efficacy in models of thrombosis (models of thrombosis [4]): highly efficacious | efficacy in models of thrombosis (models of thrombosis [5]): highly efficacious | efficacy in models of thrombosis (models of thrombosis [6]): highly efficacious | clinical findings: efficacy, safety, tolerability (acute coronary syndrome): efficacious, safe and well tolerated | reduction of prothrombin fragments 1+2 versus unfractionated heparin [7]: reduced prothrombin fragments 1+2 significantly more than unfractionated heparin | factor Xa inhibition in patients (factor Xa): dose-dependent, rapid direct factor Xa inhibition

Reference: patent US9993464B2 (SANOFI, priority 2011, dated 2018)
